COC(=O)Nc1nc2ccc(C(=O)c3ccc(F)cc3)cc2[nH]1
Details | solubility (mole fraction)
in 1,4-dioxane, 288.15 K | 8.29e-05
in 1,4-dioxane, 293.15 K | 9.83e-05
in 1,4-dioxane, 298.15 K | 0.00012
in 1,4-dioxane, 303.15 K | 0.00014
in 1,4-dioxane, 308.15 K | 0.000168
in 1,4-dioxane, 313.15 K | 0.000195
in 1,4-dioxane, 318.15 K | 0.000229
in 1,4-dioxane, 323.15 K | 0.000266
in 1,4-dioxane, 328.15 K | 0.000308
in 1,4-dioxane, 333.15 K | 0.000357
in 2-butanone, 283.15 K | 0.000232
in 2-butanone, 288.15 K | 0.000305
in 2-butanone, 293.15 K | 0.000401
in 2-butanone, 298.15 K | 0.000516
in 2-butanone, 303.15 K | 0.000682
in 2-butanone, 308.15 K | 0.000837
in 2-butanone, 313.15 K | 0.00104
in 2-butanone, 318.15 K | 0.00132
in 2-butanone, 323.15 K | 0.0017
in 2-butanone, 328.15 K | 0.00204
in 2-butanone, 333.15 K | 0.00248
in DMF, 283.15 K | 0.000572
in DMF, 288.15 K | 0.000708
in DMF, 293.15 K | 0.000821
in DMF, 298.15 K | 0.00098
in DMF, 303.15 K | 0.00116
in DMF, 308.15 K | 0.00138
in DMF, 313.15 K | 0.00162
in DMF, 318.15 K | 0.00188
in DMF, 323.15 K | 0.0022
in DMF, 328.15 K | 0.00259
in DMF, 333.15 K | 0.00309
in DMSO, 293.15 K | 0.00191
in DMSO, 298.15 K | 0.00221
in DMSO, 303.15 K | 0.00261
in DMSO, 308.15 K | 0.00303
in DMSO, 313.15 K | 0.00358
in DMSO, 318.15 K | 0.00419
in DMSO, 323.15 K | 0.00481
in DMSO, 328.15 K | 0.00548
in DMSO, 333.15 K | 0.00627
in NMP, 283.15 K | 0.00078
in NMP, 288.15 K | 0.000918
in NMP, 293.15 K | 0.00103
in NMP, 298.15 K | 0.00122
in NMP, 303.15 K | 0.00142
in NMP, 308.15 K | 0.00162
in NMP, 313.15 K | 0.00188
in NMP, 318.15 K | 0.00215
in NMP, 323.15 K | 0.00252
in NMP, 328.15 K | 0.00308
in NMP, 333.15 K | 0.00373
in ethanol, 283.15 K | 1.03e-06
in ethanol, 288.15 K | 1.56e-06
in ethanol, 293.15 K | 2.41e-06
in ethanol, 298.15 K | 3.74e-06
in ethanol, 303.15 K | 5.44e-06
in ethanol, 308.15 K | 7.73e-06
in ethanol, 313.15 K | 1.01e-05
in ethanol, 318.15 K | 1.41e-05
in ethanol, 323.15 K | 1.94e-05
in ethanol, 328.15 K | 2.55e-05
in ethanol, 333.15 K | 3.33e-05
in isobutanol, 283.15 K | 1.2e-05
in isobutanol, 288.15 K | 1.62e-05
in isobutanol, 293.15 K | 2.13e-05
in isobutanol, 298.15 K | 2.73e-05
in isobutanol, 303.15 K | 3.55e-05
in isobutanol, 308.15 K | 4.61e-05
in isobutanol, 313.15 K | 5.88e-05
in isobutanol, 318.15 K | 7.44e-05
in isobutanol, 323.15 K | 9.39e-05
in isobutanol, 328.15 K | 0.000116
in isobutanol, 333.15 K | 0.000135
in isopropanol, 283.15 K | 6.58e-06
in isopropanol, 288.15 K | 7.97e-06
in isopropanol, 293.15 K | 9.58e-06
in isopropanol, 298.15 K | 1.14e-05
in isopropanol, 303.15 K | 1.34e-05
in isopropanol, 308.15 K | 1.63e-05
in isopropanol, 313.15 K | 1.93e-05
in isopropanol, 318.15 K | 2.22e-05
in isopropanol, 323.15 K | 2.65e-05
in isopropanol, 328.15 K | 3.12e-05
in isopropanol, 333.15 K | 3.56e-05
in methanol, 283.15 K | 7.08e-07
in methanol, 288.15 K | 1.05e-06
in methanol, 293.15 K | 1.57e-06
in methanol, 298.15 K | 2.25e-06
in methanol, 303.15 K | 3.15e-06
in methanol, 308.15 K | 4.41e-06
in methanol, 313.15 K | 6.31e-06
in methanol, 318.15 K | 8.49e-06
in methanol, 323.15 K | 1.17e-05
in methanol, 328.15 K | 1.59e-05
in methanol, 333.15 K | 2.14e-05
in n-butanol, 283.15 K | 1.93e-05
in n-butanol, 288.15 K | 2.58e-05
in n-butanol, 293.15 K | 3.46e-05
in n-butanol, 298.15 K | 4.36e-05
in n-butanol, 303.15 K | 5.64e-05
in n-butanol, 308.15 K | 7.1e-05
in n-butanol, 313.15 K | 8.77e-05
in n-butanol, 318.15 K | 0.000111
in n-butanol, 323.15 K | 0.000141
in n-butanol, 328.15 K | 0.000173
in n-butanol, 333.15 K | 0.000218
in n-propanol, 283.15 K | 7.7e-06
in n-propanol, 288.15 K | 1e-05
in n-propanol, 293.15 K | 1.32e-05
in n-propanol, 298.15 K | 1.69e-05
in n-propanol, 303.15 K | 2.16e-05
in n-propanol, 308.15 K | 2.64e-05
in n-propanol, 313.15 K | 3.39e-05
in n-propanol, 318.15 K | 4.31e-05
in n-propanol, 323.15 K | 5.53e-05
in n-propanol, 328.15 K | 6.78e-05
in n-propanol, 333.15 K | 8.09e-05
in water, 283.15 K | 1.03e-07
in water, 288.15 K | 1.31e-07
in water, 293.15 K | 1.67e-07
in water, 298.15 K | 2.12e-07
in water, 303.15 K | 2.6e-07
in water, 308.15 K | 3.23e-07
in water, 313.15 K | 4e-07
in water, 318.15 K | 4.96e-07
in water, 323.15 K | 6.07e-07
in water, 328.15 K | 7.33e-07
in water, 333.15 K | 8.81e-07

Source: BigSolDB 2.1
